Assay results: ChEMBL document CHEMBL1201862, “PubChem BioAssay data set” (2004)
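The compound was tested at five concentrations on cells cultured in 96-well plates, with a 48-hour exposure period. The concentration for 50% growth inhibition is given as GI50.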 Calls of active or inactive are those of the source. No stated cut-off is given here; in the data, active = GI50 up to about 1.1 µM and inactive = higher.

Legend:
Assay in all cases: inhibition of tumour cell growth, NCI panel, 48 h
[1] = tested on: A498
[2] = tested on: A549
[3] = tested on: CAKI-1
[4] = tested on: COLO 205
[5] = tested on: Hs-578T
[6] = tested on: K562
[7] = tested on: MDA-MB-435
[8] = tested on: NCI-H226
[9] = tested on: NCI-H23
[10] = tested on: NCI-H460
[11] = tested on: NCI/ADR-RES
[12] = tested on: OVCAR-8
[13] = tested on: PC-3
[14] = tested on: RPMI-8226
[15] = tested on: RXF 393
[16] = tested on: SK-MEL-2
[17] = tested on: SK-MEL-5
[18] = tested on: SR
[19] = tested on: T47D
[20] = tested on: UACC-257

Row | Compound | GI50 [1] | GI50 [2] | GI50 [3] | GI50 [4] | GI50 [5] | GI50 [6] | GI50 [7] | GI50 [8] | GI50 [9] | GI50 [10] | GI50 [11] | GI50 [12] | GI50 [13] | GI50 [14] | GI50 [15] | GI50 [16] | GI50 [17] | GI50 [18] | GI50 [19] | GI50 [20]
1 | O=C1c2cccnc2C(=O)c2c1nc1ccccc1c2-c1cncc(-c2c3c(nc4ccccc24)C(=O)c2cccnc2C3=O)c1 | 2.56 µM (inactive) | 0.37 µM (active) | 0.332 µM (active) | 0.525 µM (active) | 0.39 µM (active) | 0.213 µM (active) | 0.256 µM (active) | 0.163 µM (active) | 0.343 µM (active) | 0.19 µM (active) | 0.253 µM (active) | 0.0634 µM (active) | 0.303 µM (active) | 0.141 µM (active) | 0.316 µM (active) | 0.693 µM (active) | 0.0568 µM (active) | < 0.01 µM (active) | 0.439 µM (active) | 0.318 µM (active)
2 | CN(C)c1nncc2[nH]cnc12 | > 100 µM (inactive) | > 100 µM (inactive) | > 100 µM (inactive) | > 100 µM (inactive) | > 100 µM (inactive) | > 100 µM (inactive) | > 100 µM (inactive) | > 100 µM (inactive) | > 100 µM (inactive) | > 100 µM (inactive) | > 100 µM (inactive) | > 100 µM (inactive) | > 100 µM (inactive) | > 100 µM (inactive) | > 100 µM (inactive) | > 100 µM (inactive) | > 100 µM (inactive) | > 100 µM (inactive) | > 100 µM (inactive) | > 100 µM (inactive)
3 | O=C(O)c1cc(/N=N/c2ccc([As](=O)(O)O)cc2)ccc1O | > 100 µM (inactive) | > 100 µM (inactive) | > 100 µM (inactive) | > 100 µM (inactive) | > 100 µM (inactive) | > 100 µM (inactive) | > 100 µM (inactive) | > 100 µM (inactive) | > 100 µM (inactive) | > 100 µM (inactive) | > 100 µM (inactive) | > 100 µM (inactive) | > 100 µM (inactive) | > 100 µM (inactive) | > 100 µM (inactive) | > 100 µM (inactive) | > 100 µM (inactive) | > 100 µM (inactive) | > 100 µM (inactive) | > 100 µM (inactive)
4 | CC(CO)(CO)/N=C/c1cc(I)cc(I)c1O | 26.5 µM (inactive) | 54.8 µM (inactive) | 22.2 µM (inactive) | 17.8 µM (inactive) | 23.6 µM (inactive) | 27.1 µM (inactive) | 13.5 µM (inactive) | 16.4 µM (inactive) | 21.8 µM (inactive) | 22.2 µM (inactive) | 14.2 µM (inactive) | 15.5 µM (inactive) | 14.2 µM (inactive) | 21.3 µM (inactive) | 10.9 µM (inactive) | 12.2 µM (inactive) | 13.8 µM (inactive) | 8.53 µM (inactive) | 23.1 µM (inactive) | 20.9 µM (inactive)
5 | CCOc1ccc(/N=C/C=C(\Cl)c2ccc3ccccc3c2)cc1 | > 58.3 µM (inactive) | 29.8 µM (inactive) | 18.8 µM (inactive) | 16.7 µM (inactive) | 29.8 µM (inactive) | 8.55 µM (inactive) | 19.4 µM (inactive) | 22.4 µM (inactive) | 10.6 µM (inactive) | 20 µM (inactive) | 12.1 µM (inactive) | 16.2 µM (inactive) | 16.5 µM (inactive) | 6.65 µM (inactive) | 15.3 µM (inactive) | 19.6 µM (inactive) | 16.4 µM (inactive) | 2.52 µM (inactive) | 4.95 µM (inactive) | 15.9 µM (inactive)
6 | COC(=O)[C@@]12OC[C@]34[C@H]([C@@H](O)[C@@H]1O)[C@@]1(C)CC(=O)C(O)=C(C)[C@@H]1C[C@H]3OC(=O)[C@H](OC(=O)/C=C(\C)C(C)C)[C@@H]24 [BRUCEANTIN] | 0.02 µM (active) | 0.02 µM (active) | 0.022 µM (active) | 0.0242 µM (active) | 0.00553 µM (active) | 0.02 µM (active) | 0.0188 µM (active) | 0.02 µM (active) | 0.02 µM (active) | 0.02 µM (active) | 0.337 µM (active) | 0.02 µM (active) | 0.016 µM (active) | 0.02 µM (active) | 0.0201 µM (active) | 0.0209 µM (active) | 0.02 µM (active) | 0.00512 µM (active) | 0.0153 µM (active) | 0.0208 µM (active)
